The source of these data is the NIST ThermoML archive (doi:10.1021/acs.jced.7b00674).

± gives the expanded uncertainty stated by the source.

Series [1] can be described thus: refractive index (Na D-line) (dimensionless). As to conditions: 298.15 K; 101.33 kPa; Liquid; Standard Abbe refractometry.
The conditions of series [2]: 298.15 K; 101.33 kPa; Liquid; Vibrating tube method.

A word on the refractive index: it is the speed of light in vacuum divided by its phase velocity in the sample. Usually mass density stands for mass per unit of volume.

With `Cc1ccc(C)cc1` [1,4-dimethylbenzene], in series [1], the refractive index was 1.4931 ± 0.012. The mass density in series [2] is reported as 856.5 ± 16 kg/m3.
For the compound `CC(=O)C=C(C)C` [4-methyl-3-penten-2-one], the refractive index in series [1] was determined as 1.4416 ± 0.012. Moreover, in series [2], the mass density stood at 857.6 ± 16 kg/m3.
Consider `OC1CCCCC1` [cyclohexanol], for which the refractive index in series [1] is 1.4621 ± 0.012. Moreover, in series [2], the mass density worked out at 961.5 ± 16 kg/m3.
Consider `Cc1ccccc1` [toluene], for which the refractive index in series [1] worked out at 1.4938 ± 0.012. In addition, the mass density in series [2] came to 862.1 ± 16 kg/m3.
`O` [water]: in series [1], the refractive index is listed as 1.3324 ± 0.012.
